One data set has as its target β3 adrenergic receptor (Homo sapiens, UniProt P13945). The experiment in a line: PDSP primary binding screen. The following applies: read-out: %Inhibition β3.
The next data set relates to BALB/cJ male mice. Format: in vivo, mouse.
The target of data set [1] is DAT: Dopamine Transporter (Homo sapiens, UniProt Q01959). The experiment in a line: PDSP primary binding screen. The following applies: read-out: %Inhibition DAT.
Another data set has as its target β2* nAChR (Mus musculus, UniProt O70174+Q9ERK7). The experiment in a line: β2* nAChR ex vivo receptor occupancy in the thalamus. The settings on record: for receptor occupancy at 3 mg/kg: mouse, ip, read-out: ex vivo receptor occupancy at β2* receptors.
In a further data set the target is human α4β2-nAChR (Homo sapiens, UniProt P17787+P43681). The data set can be described thus: 86Rb+ efflux assay in SH-EP1-hα4β2 cells. The following applies: 86Rb+ ion flux assay.
The next data set addresses α4β2 nAChR (Rattus norvegicus, UniProt P09483+P12390). The class given is binding. The following applies: ratio of Ki values.
The nature of data set [2]: In vitro metabolism with human liver microsomes. The class given is in vitro ADME. The settings on record: 1 µM. A general note: Liver microsomes are vesicles of endoplasmic reticulum, rich in cytochrome P450 enzymes.
The next data set concerns the target α4β2* nAChR (native) (Rattus norvegicus, UniProt P09483+P12390). The experiment in a line: [3H]epibatidine binding competition, rat forebrain membranes.
The target in data set [3] is H1 histaminergic receptor (Homo sapiens, UniProt P35367). The data set can be described thus: PDSP primary binding screen. The settings on record: read-out: %Inhibition H1.
Data set [4] concerns nine different CYP450 enzymes. The data set can be described thus: CYP450 inhibition. The class given is in vitro ADME.
Another data set concerns the target T1, M5 muscarinic receptor (Homo sapiens, UniProt P08912).
T1 sequence (P08912 1-532): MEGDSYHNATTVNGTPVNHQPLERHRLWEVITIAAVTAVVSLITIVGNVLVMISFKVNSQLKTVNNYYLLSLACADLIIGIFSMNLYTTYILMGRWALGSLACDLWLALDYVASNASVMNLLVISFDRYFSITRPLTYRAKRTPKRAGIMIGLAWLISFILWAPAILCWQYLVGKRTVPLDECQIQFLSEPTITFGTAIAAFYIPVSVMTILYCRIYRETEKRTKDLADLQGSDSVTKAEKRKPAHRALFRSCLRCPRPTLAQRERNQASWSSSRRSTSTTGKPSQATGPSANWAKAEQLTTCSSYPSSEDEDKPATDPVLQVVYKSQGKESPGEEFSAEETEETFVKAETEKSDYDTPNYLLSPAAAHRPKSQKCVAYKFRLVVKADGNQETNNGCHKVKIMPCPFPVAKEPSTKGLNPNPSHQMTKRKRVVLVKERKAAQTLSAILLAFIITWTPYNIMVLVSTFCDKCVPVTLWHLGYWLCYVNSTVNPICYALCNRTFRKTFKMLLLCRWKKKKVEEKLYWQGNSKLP
The experiment in a line: PDSP primary binding screen. The settings on record: read-out: %Inhibition M5.

The nature of data set [5]: In vitro metabolism with mouse liver microsomes. Format: in vitro ADME. The settings on record: 1 µM.
The target of another data set is 5-HT5A (Homo sapiens, UniProt P47898). The experiment in a line: PDSP primary binding screen. The following applies: read-out: %Inhibition 5-HT5A.
Setting [6] is: intraperitoneal, 1 mg/kg, 30 min before test.

The structures appear in SMILES notation. Entries after “also recorded” stand apart in the source; their conditions may differ. Where two headings read alike, the source gives them in different places.

Four molecules from article PMC3197876 (Journal of medicinal chemistry, 2011) can be followed below.

By inhibition is commonly meant the change of the read-out against control, counted positive when it falls. As a reminder, the Ki is a dissociation constant, usually derived from enzyme kinetics or from competition with a known ligand. Consider `Cl.OCCCc1cc(-c2cncc(OC[C@@H]3CCN3)c2)on1` [Compound 3, 3-[5-[5-(2(S)-Azetidinylmethoxy)-3-pyridyl]-3-isoxazolyl]-1-propanol Hydrochloride], for which the inhibition at 10 µM is -17.7% at β3 adrenergic receptor; -10.1% in data set [1]; -19.9% in [3]; -18.9% on M5 muscarinic receptor; -17.8% on 5-HT5A. Further, the “immobility in forced swim test” value with BALB/cJ male mice (setting [6]) is “insignificant trend”; with BALB/cJ male mice (intraperitoneal, 3 mg/kg), “significant reduction in immobility”; in the data set on BALB/cJ male mice (oral, 10 mg/kg) it was “decreased the time immobile; also recorded: reduced immobility”; in the data set on BALB/cJ male mice (oral, 1 and 3 mg/kg), “failed to show significant activity”. Besides, the “immobility in forced swim test (Figure 5)” value (“immobility … (Figure 5)” below) in the data set on BALB/cJ male mice (oral, lowest dose) is listed as “slightly higher”. Besides, at β2* nAChR, the receptor occupancy at 3 mg/kg was 60 to 70%. In addition, the “functional characterization at α4β2-nAChRs” value on human α4β2-nAChR is given as “partial agonist”. Also, the “selectivity for α4β2- over α3β4-nAChR” value at α4β2 nAChR is on record as ~15,000 fold. Further, the “metabolism with human liver microsomes” value in data set [2] was “no detectable metabolism”. Besides, the Ki on α4β2* nAChR (native) amounted to 1.9 ± 0.3 nM. Also, the “inhibitory potential towards nine different CYP450 enzymes” value in data set [4] is “no significant inhibition”. In addition, in data set [5], the “metabolism with mouse liver microsomes” value was “no detectable metabolism”.
For the molecule `Cl.OCc1cc(-c2cncc(OC[C@@H]3CCN3)c2)on1` [Compound 4, 5-[5-(2(S)-Azetidinylmethoxy)-3-pyridyl]-3-isoxazolylmethanol Hydrochloride], the “immobility in forced swim test (Figure 3)” value with BALB/cJ male mice (intraperitoneal, highest dose only) is listed as “insignificant trend”. For the same molecule, the receptor occupancy at 3 mg/kg at β2* nAChR fell in the range of 60 to 70%. Moreover, on human α4β2-nAChR, the “functional characterization at α4β2-nAChRs” value is listed as “partial agonists”. For the same molecule, the “selectivity for α4β2- over α3β4-nAChR” value on α4β2 nAChR was 20,000 fold. Affinity on α4β2* nAChR (native) was put at a Ki of 0.61 ± 0.1 nM.
For the molecule `Cl.OCCc1cc(-c2cncc(OC[C@@H]3CCN3)c2)on1` [Compound 5, 2-[5-[5-(2(S)-Azetidinylmethoxyl)-3-pyridyl]-3-isoxazolyl]ethanol Hydrochloride], the “immobility in forced swim test” value with BALB/cJ male mice (setting [6]) is listed as “significant reduction in immobility”; with BALB/cJ male mice (intraperitoneal, 3 mg/kg) it was “significant reduction in immobility”; in the data set on BALB/cJ male mice (oral, 10 mg/kg), “decreased the time immobile”. Also, the “immobility … (Figure 5)” value in the data set with BALB/cJ male mice (oral, all doses tested) is “efficacious”. For the same molecule, the “receptor occupancy (Figure 4, in words)” value at β2* nAChR (3 mg/kg intraperitoneal, mice) is “higher receptor occupancy”. For the same molecule, the receptor occupancy at 3 mg/kg on β2* nAChR is roughly 80%.
In the case of `CN[C@H]1CC[C@@H](c2ccc(Cl)c(Cl)c2)c2ccccc21` [sertraline, reference compound], the “immobility … (Figure 5)” value in the data set with BALB/cJ male mice (positive control in oral study, 10 or 20 mg/kg) is reported as “expected decrease in immobility”. The “immobility in forced swim test (Figure 3)” value with BALB/cJ male mice (positive control, intraperitoneal, 10 or 20 mg/kg) is “expected decrease in immobility”.
